Consider two compounds from US9115358B2, “Moenomycin biosynthesis-related compositions and methods of use thereof” (priority 2006, dated 2015).

One assay relates to B. cereus. The experiment in a line: Antibiotic disc diffusion assay of antibacterial activity against B. cereus. The format is cell-based, Bacillus cereus ATCC19637. The following applies: purified moe A intermediates on B. cereus reporter strain; FIG. 19, 50-200 nM per disc. On the procedure: Spots 1 and 2—moe A (100 and 10 nM per disc, respectively); 3—compound 15 (100 nM); 4—compound 16 (100 nM), 5—compound 17 (100 nM), 6—compound 24 (100 nM), 7—mixture of compounds 22 and 23 (200 nM), 8—compound 11 (100 nM), 9—mixture of compounds 22 and 23 (50 nM), 10—mixture of compounds 2 and 3 (200 nM), 11—compound 1 (200 nM), 12—extract from 5 g S. lividans TK24 mycelial cake.
Moes producers S. ghanaensis ATCC14672 and S. bambergiensis NRRL-B12101 were obtained from American Type Culture Collection (“ATCC”) and the U.S. Department of Agriculture, respectively. S. lividans TK24, S. coelicolor M145 (Kieser 2000), S. cyanogenus S136 (Westrich 1999) were used in studies on moe A resistance in Streptomyces. Bacillus cereus ATCC19637 was used as a moe-sensitive test culture.
For all moe production analysis procedures, equal amounts of biomass (wet weight) and fermentation medium were used. […]
Heterologous expression of moe biosynthetic genes in S. lividans TK24 leads to the production of moe derivatives and intermediates. […] Antibiotic disc diffusion assay, LC-MS, MS/MS and determination of accurate mass spectra of moenomycins were carried out as described in (Ostash 2007). ^1H NMR spectra of compound 11 (FIG. 4) were recorded on a Varian Inova 500 (500 MHz) instrument in D2O (4.80 ppm). […]
For orientation: Agar diffusion results depend on both activity and mobility in agar.

For a further assay, the system named is bacteria. The note with it: cited from earlier work.

“Also recorded” adds a separate entry of the source.

Regarding `C=C(C/C=C(\C)CCC=C(C)C)CCC(C)(C)/C=C/CC/C(C)=C\CO[C@H](COP(=O)(O)OC1OC(C(N)=O)C(C)(O)C(OC(N)=O)C1OC1OC(COC2OC(CO)C(O)C(O)C2O)C(O)C(O)C1NC(C)=O)C(=O)O` (some centres unmarked) [Compound 11], the “antibacterial activity (bioactivity) in disk diffusion assay” value in the assay with B. cereus is listed as “has biological activity; also recorded: biologically active”.

For the compound Neryl-moenomycin, the “activity in vivo (biological / antibacterial activity)” value with bacteria is “biologically inactive”.
